Assay results from patent publication US20050009007A1 (priority 2003, published 2005).

Test system: giant synaptic terminal of depolarizing bipolar cells from the goldfish retina
Type: cell-based
Conditions: n=7

## O=C(O)CN(CC(=O)O)c1ccccc1OCCOc1ccccc1N(CC(=O)O)CC(=O)O [BAPTA]
  increase in area of the footprint triggered by depolarization: completely blocked
